Data published in paper PMC11374718, “Unlocking opioid neuropeptide dynamics with genetically encoded biosensors” (Nature Neuroscience, 2024).
Where two headings read alike, the source gives them in different places. Where no end group is shown, it is not given here.

Columns and labels:
[1] = biological target: µLight (Homo sapiens, UniProt P35372, V175Q); assay: biochemical; type: binding
[2] = biological target: µLight (Homo sapiens, UniProt P35372, INS270[…]/V175Q); type: cell-based; conditions: for EC50: read-out: μLight EC50
Chain of µLight (Homo sapiens, UniProt P35372, INS270[…]/V175Q) (P35372 with tags, fused parts or gaps V175Q/INS270[withheld]): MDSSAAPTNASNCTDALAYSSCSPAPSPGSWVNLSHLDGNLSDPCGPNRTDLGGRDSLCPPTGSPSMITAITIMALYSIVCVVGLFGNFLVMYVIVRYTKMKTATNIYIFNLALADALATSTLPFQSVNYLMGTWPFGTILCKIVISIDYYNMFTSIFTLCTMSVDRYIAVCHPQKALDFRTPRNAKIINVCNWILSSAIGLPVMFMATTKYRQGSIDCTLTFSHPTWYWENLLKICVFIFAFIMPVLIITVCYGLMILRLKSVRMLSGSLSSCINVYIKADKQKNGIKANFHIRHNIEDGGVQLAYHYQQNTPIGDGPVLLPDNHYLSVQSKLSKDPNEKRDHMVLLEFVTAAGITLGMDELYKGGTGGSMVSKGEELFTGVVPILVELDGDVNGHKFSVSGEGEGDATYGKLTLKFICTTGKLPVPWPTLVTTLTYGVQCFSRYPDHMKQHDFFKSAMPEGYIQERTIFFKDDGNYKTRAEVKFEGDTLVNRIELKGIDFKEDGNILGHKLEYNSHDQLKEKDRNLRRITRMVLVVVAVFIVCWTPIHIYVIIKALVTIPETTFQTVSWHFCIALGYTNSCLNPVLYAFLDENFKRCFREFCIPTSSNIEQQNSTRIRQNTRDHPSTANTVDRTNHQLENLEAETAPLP

[3] = biological target: T1, κLight1.3 (Homo sapiens, UniProt P41145, INS261[…]/L259S/S262L/V164K); type: cell-based; conditions: for EC50: read-out: κLight EC50
T1 construct: TlcnC (telencephalin) tag (C); PRC tag (C); ER2 (ER export motif FCYENEV) tag (C); expressed in transfected cells; dissociated hippocampal neurons (AAV9-hSyn); mouse brain (AAV9-hSyn)
T1 sequence (P41145 with tags, fused parts or gaps V164K/L259S/INS261[withheld]/S262L): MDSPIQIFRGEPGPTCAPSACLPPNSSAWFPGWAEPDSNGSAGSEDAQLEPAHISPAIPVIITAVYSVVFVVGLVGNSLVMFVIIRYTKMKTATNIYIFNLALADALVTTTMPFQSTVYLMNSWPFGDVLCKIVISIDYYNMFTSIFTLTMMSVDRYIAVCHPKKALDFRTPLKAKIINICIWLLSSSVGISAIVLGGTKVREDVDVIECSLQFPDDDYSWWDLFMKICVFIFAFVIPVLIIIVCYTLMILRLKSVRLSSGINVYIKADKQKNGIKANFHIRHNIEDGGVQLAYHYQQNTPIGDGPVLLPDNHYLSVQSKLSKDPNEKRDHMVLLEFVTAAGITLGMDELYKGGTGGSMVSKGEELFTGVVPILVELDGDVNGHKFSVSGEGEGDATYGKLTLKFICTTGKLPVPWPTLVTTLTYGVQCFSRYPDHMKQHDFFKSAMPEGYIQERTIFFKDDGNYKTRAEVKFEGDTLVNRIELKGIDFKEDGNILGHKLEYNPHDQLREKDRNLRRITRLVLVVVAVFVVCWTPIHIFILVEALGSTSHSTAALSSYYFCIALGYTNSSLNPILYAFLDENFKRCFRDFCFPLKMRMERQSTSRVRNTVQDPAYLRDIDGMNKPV

[4] = biological target: T1, κLight1.3; type: cell-based; conditions: read-out: κLight1.3 EC50 in neurons; dissociated hippocampal neurons
[5] = tested on: κLight1.3a; assay: in situ titration in dissociated hippocampal neurons expressing κLight1.3a; type: cell-based, human
[6] = tested on: δLight; conditions: read-out: δLight EC50 in neurons; dissociated hippocampal neurons
[7] = biological target: T2, κLight (Homo sapiens, UniProt P41145, INS261[…]/L259S/S262L/V164K); assay: [3H]diprenorphine displacement binding, κLight cell membranes; conditions: read-out: κLight IC50
T2 construct: TlcnC (telencephalin) tag (C); PRC tag (C); ER2 (ER export motif FCYENEV) tag (C); expressed in transfected cells; dissociated hippocampal neurons (AAV9-hSyn); mouse brain (AAV9-hSyn)
T2 sequence (P41145 with tags, fused parts or gaps V164K/L259S/INS261[withheld]/S262L): as above

Chain of µLight (Homo sapiens, UniProt P35372, V175Q) (P35372 whole entry V175Q, looked up): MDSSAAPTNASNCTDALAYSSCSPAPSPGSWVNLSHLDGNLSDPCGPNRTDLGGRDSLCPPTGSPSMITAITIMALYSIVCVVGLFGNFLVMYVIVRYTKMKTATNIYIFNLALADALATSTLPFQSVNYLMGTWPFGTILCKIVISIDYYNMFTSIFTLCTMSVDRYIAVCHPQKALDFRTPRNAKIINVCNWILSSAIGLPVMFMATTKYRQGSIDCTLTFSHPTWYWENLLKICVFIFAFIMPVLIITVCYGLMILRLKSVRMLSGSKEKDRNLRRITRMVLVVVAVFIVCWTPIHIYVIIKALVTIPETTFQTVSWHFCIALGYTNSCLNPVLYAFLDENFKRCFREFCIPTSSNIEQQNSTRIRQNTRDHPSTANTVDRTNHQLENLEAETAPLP

Compound | μLight % bound at 10 μM [1] [%] | Normalized ΔF/F of κLight1.3 [3] | EC50 [3] [nM] | further results
C[C@@H](NC(=O)[C@@H](N)Cc1ccc(O)cc1)C(=O)NCC(=O)N(C)[C@@H](Cc1ccccc1)C(=O)NCCO [DAMGO] | 79±3 | 0.17 ± 0.03 | – | μLight ΔF/F max (%) [2]: 50.5±1.95%
CC1(C)SSC(C)(C)[C@@H](NC(=O)[C@@H](N)Cc2ccc(O)cc2)C(=O)NCC(=O)N[C@@H](Cc2ccccc2)C(=O)N[C@H]1C(=O)O [DPDPE] | – | 0.19 ± 0.04 | – | κLight ΔF/F max (%) [3]: 20.5±1.67%
CC(C)[C@H](NC(=O)[C@H](CC(=O)O)NC(=O)[C@H](Cc1ccccc1)NC(=O)[C@@H](C)NC(=O)[C@@H](N)Cc1ccc(O)cc1)C(=O)N[C@H](C(=O)NCC(N)=O)C(C)C [Deltorphin I] | – | 0.26 ± 0.02 | – | –
CC[C@H](C)[C@H](NC(=O)[C@H](CCCNC(=N)N)NC(=O)[C@H](CCCNC(=N)N)NC(=O)[C@H](CC(C)C)NC(=O)[C@H](Cc1ccccc1)NC(=O)CNC(=O)CNC(=O)[C@@H](N)Cc1ccc(O)cc1)C(=O)O [DynA8, dynorphin A1-8] | 58±2 | 0.61 ± 0.04 | – | IC50 [1]: 48 ± 2 nM
CC[C@H](C)[C@H](NC(=O)[C@H](CCCNC(=N)N)NC(=O)[C@H](CCCNC(=N)N)NC(=O)[C@H](CC(C)C)NC(=O)[C@H](Cc1ccccc1)NC(=O)CNC(=O)CNC(=O)[C@@H](N)Cc1ccc(O)cc1)C(=O)N[C@@H](CCCNC(=N)N)C(=O)N1CCC[C@H]1C(=O)N[C@@H](CCCCN)C(=O)N[C@@H](CC(C)C)C(=O)N[C@@H](CCCCN)C(=O)O [DynA13, dynorphin A1-13] | – | – | 0.0898 | EC50 [4]: 19.2 nM; EC50 [5]: 35.4 nM; EC50 [6]: 562 nM
CC(C)C[C@H](NC(=O)[C@H](Cc1ccccc1)NC(=O)CNC(=O)CNC(=O)[C@@H](N)Cc1ccc(O)cc1)C(=O)O [LE, Leu-enkephalin] | – | 0.24 ± 0.02 | – | –
CSCC[C@H](NC(=O)[C@H](Cc1ccccc1)NC(=O)CNC(=O)CNC(=O)[C@@H](N)Cc1ccc(O)cc1)C(=O)O [ME, met-enkephalin] | – | 0.18 ± 0.005 | 6640 | EC50 [4]: 52100 nM; EC50 [5]: 9650 nM; IC50 [7]: 130 ± 3 nM
CN(C(=O)/C=C/c1ccoc1)[C@@H]1CC[C@@]2(O)[C@H]3Cc4ccc(O)c5c4[C@@]2(CCN3CC2CC2)[C@H]1O5 [Nalfurafine, nalfurafine] | – | 1.91 ± 0.09 | – | –
COc1ccc2c3c1O[C@H]1C(=O)CC[C@@]4(O)[C@@H](C2)N(C)CC[C@]314 [Oxycodone, oxycodone] | 32±3 | 0.16 ± 0.04 | – | µLight fluorescence response [2]: suppressed; μLight ΔF/F max (%) [2]: -12.8±2.78%
CC[C@H](C)[C@H](NC(=O)[C@H](C)NC(=O)[C@H](CC(N)=O)NC(=O)[C@H](CCCCN)NC(=O)[C@H](Cc1ccccc1)NC(=O)[C@H](CC(C)C)NC(=O)[C@@H](NC(=O)[C@@H](NC(=O)[C@H](CC(C)C)NC(=O)[C@@H]1CCCN1C(=O)[C@@H](NC(=O)[C@H](CCC(N)=O)NC(=O)[C@H](CO)NC(=O)[C@H](CCCCN)NC(=O)[C@H](CCC(=O)O)NC(=O)[C@H](CO)NC(=O)[C@@H](NC(=O)[C@H](CCSC)NC(=O)[C@H](Cc1ccccc1)NC(=O)CNC(=O)CNC(=O)[C@@H](N)Cc1ccc(O)cc1)[C@@H](C)O)[C@@H](C)O)C(C)C)[C@@H](C)O)C(=O)N[C@H](C(=O)N[C@@H](CCCCN)C(=O)N[C@@H](CC(N)=O)C(=O)N[C@@H](C)C(=O)N[C@@H](Cc1ccc(O)cc1)C(=O)N[C@@H](CCCCN)C(=O)N[C@@H](CCCCN)C(=O)NCC(=O)N[C@@H](CCC(=O)O)C(=O)O)[C@@H](C)CC [β-endorphin] | 46±3 | 0.21 ± 0.01 | – | EC50 [5]: 2710 nM; EC50 [6]: 217 nM
YGGFLRKYP [β-neoendorphin] | – | 0.26 ± 0.03 | 25.9 | IC50 [7]: 13 ± 2 nM; EC50 [2]: 6310 nM
YGGFLRRQF [DynB9, Dynorphin B9] | – | 0.97 ± 0.03 | 10 | EC50 [2]: 3760 nM
YGGFMRRVGRPEWWMDYQ [BAM18] | – | 0.48 ± 0.03 | 35.6 | IC50 [7]: 243 ± 2 nM; IC50 ([1]; read-out: μLight IC50): 14 ± 2 nM; EC50 [2]: 186 nM
YGGFMRRVGRPEWWMDYQKRYGGFL [Peptide E] | 65±2 | – | – | IC50 [7]: 252 ± 2 nM; IC50 ([1]; read-out: μLight IC50): 154 ± 2 nM
